Molecular target: T1, Mfsd2b (Mus musculus, UniProt Q3T9M1)
T1 construct: full-length native transporter in isolated mouse erythrocytes; Mfsd2b knockout erythrocytes as control
T1 sequence (Q3T9M1 1-494): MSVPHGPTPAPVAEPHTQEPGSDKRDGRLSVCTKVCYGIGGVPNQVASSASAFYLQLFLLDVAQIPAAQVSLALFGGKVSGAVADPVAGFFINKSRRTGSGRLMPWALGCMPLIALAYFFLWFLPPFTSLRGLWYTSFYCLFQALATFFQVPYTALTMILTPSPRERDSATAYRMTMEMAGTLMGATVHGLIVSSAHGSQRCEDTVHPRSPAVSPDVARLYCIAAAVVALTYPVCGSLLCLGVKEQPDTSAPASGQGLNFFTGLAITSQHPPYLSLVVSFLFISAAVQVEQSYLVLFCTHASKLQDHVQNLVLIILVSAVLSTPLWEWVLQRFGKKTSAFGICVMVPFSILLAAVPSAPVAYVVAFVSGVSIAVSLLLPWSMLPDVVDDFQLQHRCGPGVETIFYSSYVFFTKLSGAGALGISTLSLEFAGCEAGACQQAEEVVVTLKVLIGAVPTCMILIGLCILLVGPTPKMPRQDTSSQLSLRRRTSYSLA
Experiment: [[…]-3H]-S1P export, WT versus Mfsd2b KO erythrocytes
Format: cell-based
Conditions: S1P formed inside from [3-3H]-Sph; 0.5% BSA acceptor; pH 7.4; labelled compound

SMILES: CCCCCCCCCCCCC/C=C/[C@@H](O)[C@@H](N)COP(=O)(O)O [S1P]
- [3-3H]-S1P export, WT versus Mfsd2b KO erythrocytes: Mfsd2b KO erythrocytes showed a significant reduction of S1P transport
